Assays:
Assay type in all cases: cell-based, rat
[1] = tested on: H9c2 cells; assay: Cellular GSH level in H9c2 cells, time course, with or without xanthine/xanthine oxidase (X/XO) challenge; conditions: 6.25 μM
Description: (§1) H9c2 cells, a permanent cell line derived from cardiac myoblasts of rat embryo, have early been characterized as a suitable model of myocardial cells [Hescheler et al. 1991]. H9c2 cells were cultured as monolayers in Dulbecco's modified Eagle's medium (GIBCO BRL) supplemented with 10% (v/v) fetal bovine serum. The medium contained glucose (4.5 g/L) and glutamine (4.5 mM), supplemented with NaHCO3 (17 mM), penicillin (100 IU/ml), and streptomycin (100 μg/ml). Cells were grown under an atmosphere of 5% CO2 in air at 37° C. The medium was replaced by fresh medium every 2 or 3 days. A stock of cells was grown in a 75 cm culture flask and split before confluence at a subcultivation ratio of 1:10. Cells used for experiments were seeded at a density of 3.75×10^4 cells/well on a 12-well culture plate, and the cells were grown for 24 h to about 80% confluence prior to drug treatment.
(§2) Cultured H9c2 cells were treated with (−) Schisandrin B, (+) Schisandrin B or (±) Schisandrin B (dissolved in DMSO) at 6.25 μM (0.2% DMSO final concentration) for increasing periods of time. Control cells were given the vehicle (i.e. DMSO) only. Immediately following the drug or vehicle pretreatment, the cells were challenged with a mixture of xanthine (X) (0.1 mM) and xanthine oxidase (XO) (0.4 U/ml) for 4 h. The control cells were treated with the medium only. After the X/XO challenge, the medium was taken for the measurement of LDH activity, a biochemical index of cellular injury.
(§3) The cells were washed twice with 0.5 ml cold phosphate-buffered saline (PBS), An aliquot (200 μl) of 3% sulfonsalicyclic acid was then added, and the mixture was incubate at 4° C. for 10 min. After centrifuging at 300 g for 15 min at 4° C., the supernatant was used for GSH measurement by an enzymatic method of Griffith (1980).

[2] = tested on: H9c2 cells; assay: Xanthine/xanthine oxidase-induced cytotoxicity (LDH leakage) in H9c2 cells; conditions: 6.25 μM
Description: as §1, §2

[3] = tested on: H9c2 cells; assay: Cellular GSH level in H9c2 cells with or without menadione challenge
Description: as §1
Cultured H9c2 cells were treated with (−) Schisandrin B, (+) Schisandrin B or (±) Schisandrin B (dissolved in DMSO) at 6.25 μM (0.2% DMSO final concentration) for 16 h. Control cells were given the vehicle (i.e. DMSO) only. Immediately following the drug or vehicle pretreatment, the cells were challenged with menadione (dissolved in ethanol) at 12.5 μM (0.2% ethanol final concentration) for 4 h. The control cells were treated with the medium containing 0.2% ethanol only. After the menadione challenge, the medium was taken for the measurement of LDH activity, an biochemical index of cell injury.
as §3

[4] = X/XO challenge, 0 h post-dosing (unpretreated control)
[5] = X/XO challenge, 4 h post-dosing
[6] = X/XO challenge, 8 h post-dosing
[7] = X/XO challenge, 16 h post-dosing
[8] = X/XO challenge, 24 h post-dosing
[9] = X/XO challenge, 48 h post-dosing
[10] = MENADIONE 12.5 μM for 4 h, drug 6.25 μM for 16 h
[11] = NON-MENADIONE, 6.25 μM for 16 h

Question: How did the “stimulatory effect on cellular GSH” value ([1]; 48 h post-dosing) turn out when COc1cc2c(c(OC)c1OC)-c1c(cc3c(c1OC)OCO3)CC(C)C(C)C2 (single isomer, unassigned; (-)) [(−) Sch B, (−) Schisandrin B] was run?
Answer: no detectable stimulatory effect

Question: What about the “time of maximum stimulation of cellular GSH” value ([1]; post-dosing) of the same compound?
Answer: 16 h

Question: What about the “GSH Level” value ([1]; NON-X/XO, 0 h post-dosing (unpretreated control)) of the same compound?
Answer: 35.8 ± 1.04 nmol/mg protein

Question: What about the “GSH Level” value ([1]; NON-X/XO, 4 h post-dosing) of the same compound?
Answer: 46.8 ± 0.88 nmol/mg protein

Question: And the “GSH Level” value ([1]; NON-X/XO, 8 h post-dosing)?
Answer: 54.2 ± 1.42 nmol/mg protein

Question: And the “GSH Level” value ([1]; NON-X/XO, 16 h post-dosing)?
Answer: 92.6 ± 1.29 nmol/mg protein

Question: And the “GSH Level, percent increase vs unpretreated control (0 h)” value ([1]; NON-X/XO, 16 h post-dosing)?
Answer: (158%)

Question: What about the “GSH Level” value ([1]; NON-X/XO, 24 h post-dosing) of the same compound?
Answer: 79.0 ± 1.48 nmol/mg protein

Question: And the “GSH Level” value ([1]; NON-X/XO, 48 h post-dosing)?
Answer: 54.7 ± 3.58 nmol/mg protein

Question: And the “GSH Level” value [1, 4]?
Answer: 15.9 ± 0.45 nmol/mg protein

Question: And the “GSH Level” value [1, 5]?
Answer: 18.3 ± 0.57 nmol/mg protein

Question: What about the “GSH Level” value [1, 6] of the same compound?
Answer: 20.7 ± 0.61 nmol/mg protein

Question: What about the “GSH Level” value [1, 7] of the same compound?
Answer: 25.1 ± 1.50 nmol/mg protein

Question: What about the “GSH Level, percent increase vs unpretreated control (0 h)” value [1, 7] of the same compound?
Answer: (57%)

Question: And the “GSH Level” value [1, 8]?
Answer: 17.8 ± 0.59 nmol/mg protein

Question: What about the “GSH Level” value [1, 9] of the same compound?
Answer: 16.7 ± 0.63 nmol/mg protein

Question: And the “time of maximum extent of protection against X/XO-induced cell injury (LDH leakage)” value ([2]; post-dosing)?
Answer: 16 h

Question: What about the “LDH Leakage” value [2, 4] of the same compound?
Answer: 34.8 ± 1.13 U/L

Question: And the “LDH Leakage” value [2, 5]?
Answer: 26.0 ± 0.92 U/L

Question: And the “LDH Leakage” value [2, 6]?
Answer: 22.0 ± 0.63 U/L

Question: And the “LDH Leakage” value [2, 7]?
Answer: 14.2 ± 0.35 U/L

Question: What about the “LDH Leakage, percent protection vs unpretreated control (0 h)” value [2, 7] of the same compound?
Answer: (78%)

Question: What about the “LDH Leakage” value [2, 8] of the same compound?
Answer: 17.5 ± 0.85 U/L

Question: What about the “LDH Leakage” value [2, 9] of the same compound?
Answer: 26.3 ± 0.41 U/L

Question: And the “GSH Level” value [3, 10]?
Answer: 33.3 ± 1.75 nmol/mg protein

Question: And the “GSH Level, percent increase vs menadione control” value [3, 10]?
Answer: (81%)

Question: What about the “GSH Level” value [3, 11] of the same compound?
Answer: 64.0 ± 2.96 nmol/mg protein

Question: And the “GSH Level, percent increase vs non-menadione control” value [3, 11]?
Answer: (84%)
